Reference: patent US7049314B2, “Cyclopentyl indole derivatives” (Bristol-Myers Squibb Company, priority 2002, dated 2006)
Where two headings read alike, the source gives them in different places.

Experiments:
[1] = target: T1, human norepinephrine transporters (Homo sapiens, UniProt P23975); experiment: Norepinephrine Transporter Binding Assay ([3H]-nisoxetine displacement, hNET cell membranes); conditions: 2.7 nM [3H]-nisoxetine, 1 hr at 4° C., read-out: NE Reuptake (binding Ki)
T1 construct: host or cells: MDCK cells (also 'HEK-hNET cells'), membrane homogenates
T1 sequence (P23975 whole entry): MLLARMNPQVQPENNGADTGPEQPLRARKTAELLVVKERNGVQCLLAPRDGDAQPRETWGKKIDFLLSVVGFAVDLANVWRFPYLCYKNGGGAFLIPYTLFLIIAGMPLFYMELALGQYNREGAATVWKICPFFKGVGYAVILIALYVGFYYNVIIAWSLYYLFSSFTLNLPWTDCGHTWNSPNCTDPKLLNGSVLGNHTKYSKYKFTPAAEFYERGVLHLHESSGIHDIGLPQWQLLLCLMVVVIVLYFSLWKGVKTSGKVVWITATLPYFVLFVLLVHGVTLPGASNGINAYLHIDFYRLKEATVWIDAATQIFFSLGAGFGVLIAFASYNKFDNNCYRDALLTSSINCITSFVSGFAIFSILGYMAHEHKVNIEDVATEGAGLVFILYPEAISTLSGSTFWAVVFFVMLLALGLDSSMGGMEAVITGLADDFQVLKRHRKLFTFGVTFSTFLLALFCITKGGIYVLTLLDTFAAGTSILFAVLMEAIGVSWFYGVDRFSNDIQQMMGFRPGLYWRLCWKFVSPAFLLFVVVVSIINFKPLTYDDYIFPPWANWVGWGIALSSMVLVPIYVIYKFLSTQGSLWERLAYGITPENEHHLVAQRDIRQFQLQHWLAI
Description: MDCK cells that stably express human norepinephrine transporters (HEK-hNET cells) were supplied by Receptor Biology, Inc. Pellets were resuspended by homogenization in buffer consisting of 50 mM Tris (pH 7.4 at 25° C.), 120 mM NaCl and 5 mM KCl. Membrane homogenates (200 μl/well, 8 ug protein) were incubated with 2.7 nM [^3H]-nisoxetine (specific activity=80 Ci/mMol) and increasing concentrations of test compounds for 1 hr at 4° C. in a total volume of 250 μl. The assay buffer consisted of 50 mM Tris (pH 7.4 at 25° C.), 120 mM NaCl and 5 mM KCl (pH 7.4 with conc. HCl). Plates were incubated for 1 hr at 4° C., then filtered through 0.5% PEI treated Whatman GF/B filters using a Brandel cell harvester. Filters were washed three times with 3 mL of ice-cold tris wash buffer. Non-specific binding was defined with 10 μM desipramine. Amount of radioligand bound in the presence and absence of competitor was analyzed by plotting (−)log drug concentration versus the amount of radioligand specifically bound. The midpoint of the displacement curve (IC50, nM), signifies the potency. Ki values were calculated using the method of Cheng and Prusoff (1973).

[2] = target: T2, human serotonin transporters (Homo sapiens, UniProt P31645); experiment: Serotonin Transporter Binding Assay ([3H]-citalopram displacement, HEK-hSERT cell membranes)
T2 construct: expressed in transfected cells
T2 sequence (P31645 whole entry): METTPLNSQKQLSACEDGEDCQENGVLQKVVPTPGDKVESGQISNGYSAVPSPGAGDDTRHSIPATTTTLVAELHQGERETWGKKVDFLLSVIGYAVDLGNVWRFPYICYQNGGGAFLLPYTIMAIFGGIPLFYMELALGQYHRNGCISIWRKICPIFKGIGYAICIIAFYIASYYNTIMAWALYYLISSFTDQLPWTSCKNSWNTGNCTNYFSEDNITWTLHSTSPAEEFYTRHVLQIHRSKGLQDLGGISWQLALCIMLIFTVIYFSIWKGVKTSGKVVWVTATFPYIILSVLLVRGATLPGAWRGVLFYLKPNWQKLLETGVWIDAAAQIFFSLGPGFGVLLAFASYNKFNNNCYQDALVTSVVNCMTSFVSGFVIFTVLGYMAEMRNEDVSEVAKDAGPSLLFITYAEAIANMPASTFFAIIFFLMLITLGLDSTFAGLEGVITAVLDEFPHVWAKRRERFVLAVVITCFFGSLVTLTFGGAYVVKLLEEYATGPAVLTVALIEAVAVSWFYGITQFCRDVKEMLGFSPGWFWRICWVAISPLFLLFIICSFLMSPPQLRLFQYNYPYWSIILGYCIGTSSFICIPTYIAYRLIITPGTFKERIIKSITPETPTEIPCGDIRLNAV
Description: HEK-293 cells that stably express human serotonin transporters (HEK-hSERT cells) were grown at 37° C. in 5% CO2 as a monolayer in medium consisting of EMEM supplemented with 10% fetal bovine serum and G418 sulfate (500 μg/mL). To prepare membranes for radioligand binding experiments, cells were rinsed twice with phosphate-buffered saline (138 mM NaCl, 4.1 mM KCl, 5.1 mM Na2PO4, 1.5 mM […], 11.1 mM glucose, pH 7.4). Cells were transferred from plates to polypropylene tubes (16×100 mm), centrifuged at 1,200×g for 5 min and were frozen at −80° C. until assay. Following centrifugation, pellets were resuspended by homogenization in buffer consisting of 50 mM Tris (pH 7.7 at 25° C.), 120 mM NaCl and 5 mM KCl and then centrifuged at 32,000×g for 10 min. Following centrifugation, supernatants were discarded and pellets were resuspended in buffer consisting of 50 mM Tris (pH 7.4 at 25° C.), 150 mM NaCl and 5 mM KCl. Membrane homogenates (200 μl/plate) were incubated with 1 nM [^3H]-citalopram (specific activity=85 Ci/mMol) and increasing concentrations of test compounds for 1 hr at 25° C. in a total volume of 250 μl. The assay buffer consisted of 50 mM Tris (pH 7.4 at 25° C.), 120 mM NaCl and 5 mM KCl (pH 7.4 with conc. HCl). Plates were incubated for 1 hr at 25° C., then filtered through 0.5% PEI treated Whatman GF/B filters using a Brandel cell harvester. Filters were washed three times with 3 mL of ice-cold tris wash buffer. Non-specific binding was defined with 10 μM fluoxetine. Amount of radioligand bound in the presence and absence of competitor was analyzed by plotting (−)log drug concentration versus the amount of radioligand specifically bound. The midpoint of the displacement curve (IC50, nM), signifies the potency. Ki values were calculated using the method of Cheng and Prusoff (1973).

[3] = HEK-hSERT membranes, 1 nM [3H]-citalopram, 1 hr at 25° C., read-out: SERT (binding Ki)

Compound	Ki [1] [nM]	Ki [2, 3] [nM]	Ki [2] [nM]
Cn1cc(C2CCC(N3CCCCC3)C2)c2cc(C#N)ccc21 (stereo not drawn) [Compound 25, 1-Methyl-3-(3-piperidin-1-yl-cyclopentyl)-1H-indole-5-carbonitrile]	> 1000	< 1	
Cn1cc(C2CCC(N3CCOCC3)C2)c2cc(C#N)ccc21 (stereo not drawn) [Compound 26, 1-Methyl-3-(3-morpholin-4-yl-cyclopentyl)-1H-indole-5-carbonitrile]	> 1000	< 1	
CN(Cc1ccccc1)C1CCC(c2cn(C)c3ccc(C#N)cc23)C1 (stereo not drawn) [Compound 27, 3-[3-(Benzyl-methyl-amino)-cyclopentyl]-1-methyl-1H-indole-5-carbonitrile]	> 1000	< 1	
CN(CCc1ccccc1)C1CCC(c2cn(C)c3ccc(C#N)cc23)C1 (stereo not drawn) [Compound 28, 1-Methyl-3-[3-(methyl-phenethyl-amino)-cyclopentyl]-1H-indole-5-carbonitrile]	100 to 1000	1 to 10	
CCCNC1CCC(c2cn(C)c3ccc(C#N)cc23)C1 (stereo not drawn) [Compound 29, 1-Methyl-3-(3-propylamino-cyclopentyl)-1H-indole-5-carbonitrile]	> 1000		< 1
CCCN(CCC)C1CCC(c2cn(C)c3ccc(C#N)cc23)C1 (stereo not drawn) [Compound 30, 3-(3-Dipropylamino-cyclopentyl)-1-methyl-1H-indole-5-carbonitrile]	> 1000	< 1	
CCn1cc(C2CCC(N(C)Cc3ccccc3)C2)c2cc(C#N)ccc21 (stereo not drawn) [Compound 31, 3-[3-(Benzyl-methyl-amino)-cyclopentyl]-1-ethyl-1H-indole-5-carbonitrile]	> 1000	1 to 10	
CCn1cc(C2CCC(N(C)C)C2)c2cc(C#N)ccc21 (stereo not drawn) [Compound 32, 3-(3-Dimethylamino-cyclopentyl)-1-ethyl-1H-indole-5-carbonitrile]	> 1000	< 1	
CN(C)C1CCC(c2c[nH]c3ccc(F)cc23)C1 (stereo not drawn) [Compound 33]	> 1000	< 1	
CCN(C)C1CCC(c2c[nH]c3ccc(F)cc23)C1 (stereo not drawn) [Compound 34, Ethyl-[3-(5-fluoro-1H-indol-3-yl)cyclopentyl]-methyl-amine]	> 1000		1 to 10
CCN(CC)C1CCC(c2c[nH]c3ccc(F)cc23)C1 (stereo not drawn) [Compound 35, Diethyl-[3-(5-fluoro-1H-indol-3-yl)-cyclopentyl]-amine]	> 1000		5
Fc1ccc2[nH]cc(C3CCC(N4CCCC4)C3)c2c1 (stereo not drawn) [Compound 36]	> 1000		1 to 10
CN(C)[C@@H]1CC[C@H](c2c[nH]c3ccc(C#N)cc23)C1 [Compound 48, (1S,3R)-3-(3-dimethylaminocyclopentyl)-1H-indole-5-carbonitrile]	> 1000	< 1	
CN(C)[C@H]1CC[C@H](c2c[nH]c3ccc(C#N)cc23)C1 [Compound 49, (1S,3S)-3-(3-dimethylaminocyclopentyl)-1H-indole-5-carbonitrile]	> 1000	< 1	
CN(C)[C@H]1CC[C@@H](c2c[nH]c3ccc(C#N)cc23)C1 [Compound 50, (1R,3S)-3-(3-dimethylaminocyclopentyl)-1H-indole-5-carbonitrile]	> 1000	< 1	
CN(C)[C@@H]1CC[C@@H](c2c[nH]c3ccc(C#N)cc23)C1 [Compound 51, (1R,3R)-3-(3-dimethylaminocyclopentyl)-1H-indole-5-carbonitrile]	> 1000	< 1	
CN(C)[C@H]1CC[C@H](c2c[nH]c3ccc(F)cc23)C1 [Compound 52, (1S,3S)-3-(5-fluoro-1H-indol-3-yl)-cyclopentyl-dimethylamine]	> 1000	1 to 10	
CN(C)[C@@H]1CC[C@H](c2c[nH]c3ccc(F)cc23)C1 [Compound 53, (1R,3S)-3-(5-fluoro-1H-indol-3-yl)-cyclopentyl-dimethylamine]	> 1000	< 1	
